Laboratory results as given in patent US20120021519A1, “EFFICIENT INDUCTION OF PLURIPOTENT STEM CELLS USING SMALL MOLECULE COMPOUNDS” (PRESIDENTS AND FELLOWS OF HARVARD COLLEGE, priority 2008, published 2012).
“And” between values parts separate entries of the source, which are not always exact repeats. Equal values may be shown once. “Also recorded” adds a separate entry of the source. Read-outs that look alike come from different tables or passages of the source.

What was measured:
[1] = system: stable Oct4::GFP-negative intermediate cell lines (OKM); assay: Chemical reprogramming of stable intermediate cell lines from Oct4, Klf4, cMyc MEFs; format: cell-based, mouse
Experimental: (§1) Oct4::GFP-negative colonies in Oct4, Klf4, and cMyc or Oct4, Klf4, cMyc, and Sox2-infected MEF cultures were picked, plated on irradiated feeders, and single colonies were picked after 1 week. The resulting cell lines were passaged with trypsin and grown in mES media on feeders until passage 4, at which time they were treated with RepSox (25 μM), AZA (500 μM), or both for 48 hours. Oct4::GFP+colonies were scored 12 days after the beginning of chemical treatment.

[2] = system: stable Oct4::GFP-negative intermediate cell lines (OKMS); assay: Chemical reprogramming of stable intermediate cell lines from Oct4, Klf4, cMyc, Sox2 MEFs; format: cell-based, mouse
Experimental: as §1

[3] = system: Klf4, cMyc, and Sox2-infected Oct4::GFP MEFs; assay: Oct4 replacement: Oct4::GFP+ colonies in Klf4, cMyc, Sox2-infected MEFs; format: cell-based, mouse
Experimental: (§2) Moloney-based retroviral vectors (pMXs) expressing the murine complementary DNAs of Oct4, Sox2, c-Myc, and Klf4 were obtained from Addgene. These plasmids were transfected separately into individual populations of Plat-E packaging cells using Fugene 6, with 27 μl of Fugene 6 and 9 μg of DNA per 10 cm dish of Plat-E cells. Viral supernatants were obtained 48-72 hours post-transfection, filtered through a 0.22 μm filter, diluted 1:1 in MEF growth media, and supplemented with polybrene at a final concentration of 5 μg/ml. The supernatants for the four factors were mixed in an equimolar ratio, and media was used in place of a factor when it was omitted from the infection. MEFs were infected with two to three pools of viral supernatant during a 72-hour period. The first day that viral supernatant was termed “day 1 post-infection.”
(§3) On day 4 post-infection, infected MEFs were trypsinized and re-seeded on irradiated feeders in 96-well plates at 2000 cells/well and cultured in mouse ES cell media (Knockout DMEM supplemented with 15% Hyclone FBS, L-glutamine, penicillin/streptomycin, nonessential amino acids, β-mercaptoethanol, and 1000 U/ml LIF). The next day, compound stock solutions diluted in DMSO and, where applicable, VPA (Sigma), were added at a final concentration of 1 μM and 2 mM, respectively. VPA was removed after 1 week, and compound was re-applied every other day with each media change. Plates were scored for GFP+colonies after 11 of compound treatment.
The inventors re-iterated their screen to find small molecules that could replace Oct4 (FIG. 27A). The inventors modified their approach slightly and screened in normal mES culture media containing a higher concentration of VPA (2 mM). After transducing 7500 MEFs with the four reprogramming transgenes and treating with VPA, the inventors observed only ˜125 GFP+ colonies (FIG. 27C). […] Therefore we opted to continue the screen under these conditions.
Following transduction with only Klf4, cMyc, and Sox2, 2000 MEFS were cultured for 25 days in the presence of VPA and each compound from the chemical library (FIG. 27A). […] Additionally, Ropivacaine, a compound that both antagonizes Na^+-channels and that also activates p38 mitogen-activated protein kinase (MAPK)(25)(FIG. 27B), induced more than 10 colonies that had mES-like morphologies, but were not GFP+(FIG. 27C).

[4] = system: Oct4, Klf4, cMyc, and Sox2-infected MEFs; assay: Reprogramming efficiency with all four factors; format: cell-based, mouse
Experimental: as §2
(§4) Retroviral infection and compound or antibody treatment was performed as in the original chemical screen. To quantify the numbers of GFP+colonies produced in
(§5) different conditions, the number of colonies in each well was counted and at least 2 different wells were counted and averaged. Concentrations of compounds and antibodies were the following: VPA (Sigma)-2 mM, RepSox (Calbiochem)-25 μM, E-616451 (Calbiochem)-3 μM, EI-275 (Biomol)-3 SB-431542 (Sigma)-25 μM, TgfβIIspecific antibody (R&D Systems, AB-12-NA)-10 μg/ml, pan-Tgβ antibody (R&D Systems, AB-100-NA)-10 μg/ml. Unless otherwise noted, all chemical treatments were continuous from initial administration at day 4-5 post-infection until GFP+colonies were scored. Fresh chemical was added at each media change.

[5] = system: Oct4, Klf4, and cMyc-infected Oct4::GFP MEFs; assay: Sox2 replacement: Oct4::GFP+ colony formation in Oct4, Klf4, cMyc-infected MEFs; format: cell-based, mouse
Experimental: MEFs were derived from E12.5 embryos hemizygous for the Oct4::GFP transgenic allele. Gonads and internal organs were removed before processing the embryos for MEF isolation. MEFs were grown in DMEM supplemented with 10% FBS and penicillin/streptomycin. Low passage (up to passage 3) MEFs were used for generation of iPS cells.
as §2, §3
Infections and VPA/compound addition was done as in the original chemical screen, and wells were scored for GFP+ colonies on day 25 after compound addition.
as §4, §5

[6] = system: Oct4, cMyc and Sox2-infected Oct4::GFP MEFs; assay: Klf4 replacement: Oct4::GFP+ colonies in Oct4, cMyc, Sox2-infected MEFs; format: cell-based, mouse
Experimental: as §2
as §3, with “VPA was removed after 1 week, and compound was re-applied every other day with each media change.” left out, “treatment. […]” for “treatment.”

[7] = system: Nanog; assay: Nanog expression in partially reprogrammed intermediate cell lines; format: cell-based, mouse; settings: lines OKM 10 and OKMS 7, 48 hours
Experimental: Cells were grown to near confluence on an irradiated layer and RNA was isolated with Trizol (Invitrogen). RNA was amplified and labeled with biotin using the Illumina Total Prep RNA Amplification Kit from Ambion, hybridized to Illumina Whole-Genome Expression BeadChips (MouseRef-8), and analyzed by an Illumina Beadstation 500. All lines were analyzed in biological duplicate or triplicate. Data were processed using Resolver software.

[8] = system: MEFs transduced with Oct4, Klf4, and Sox2; assay: cMyc replacement: Oct4::GFP+ colonies in the absence of cMyc; format: cell-based, mouse
Experimental: as §2, §4
different conditions, the number of colonies in each well was counted and at least 2 different wells were counted and averaged. […] Unless otherwise noted, all chemical treatments were continuous from initial administration at day 4-5 post-infection until GFP+colonies were scored. […]

[9] = system: Tgf-β signaling; settings: reference 32; cited from earlier work

Nc1ncn([C@@H]2O[C@H](CO)[C@@H](O)[C@H]2O)c(=O)n1 [AZA, 5-aza-cytidine]
lines reprogrammed out of 10 OKM intermediate lines ([1]; 48 hours treatment): none | Oct4::GFP+ colonies in line OKM 10 ([1]; 48 hours, then 14 days culture): Neither chemical induced formation of Oct4::GFP+colonies | Oct4::GFP expression in RepSox-responsive OKMS lines ([2]; 48 hours treatment and 12 subsequent days): none of the RepSox-responsive cell lines expressed Oct4::GFP | lines reprogrammed out of 9 OKMS intermediate lines ([2]; 48 hours treatment at passage 4): one

CCCCN1CCCCC1C(=O)Nc1c(C)cccc1C (stereo not drawn) [Bupivacaine]
Oct4::GFP+ colonies in the absence of VPA ([3]; larger scale): independently induced GFP+colonies | effect on reprogramming efficiency with all four iPS factors [4]: not enhanced | effect on reprogramming efficiency with all four iPS factors ([4]; listed as Bupivocaine): do not increase the efficiency of reprogramming

c1ccc(-c2n[nH]cc2-c2ccnc3ccccc23)nc1 [E-616451, [3-(Pyridin-2-yl)-4-(4-quinoyl)]-1H-pyrazole]
rate of GFP+ colony formation with VPA ([5]; 1500 MEFs, + VPA, E-616452 25 μM, E-616451 3 μM, EI-275 3 μM): comparable to normal retroviral transduction with Sox2 | GFP+ colonies with mES-like morphology in primary screen ([5]; 2000 cells per well, compound 1 μM, 2 mM VPA for first 7 days, scored after 16 days): induced GFP+colonies | concentration at which found to be most potent in reprogramming ([5]; E-616451 and EI-275 +VPA): 3 µM | optimal concentration for Oct4::GFP+ colony formation ([5]; compound titration, 2 mM of VPA in all wells (FIG. 7)): greater than 1 μM | GFP+ colonies in the absence of VPA ([5]; no VPA): could not induce the appearance of GFP+colonies | effect on reprogramming efficiency with all four iPS factors [4]: not enhanced; also recorded: do not increase the efficiency of reprogramming

O=C(O)c1cc(NCc2cc(O)ccc2O)ccc1O [HDBA, Lavendustin C]
effect on reprogramming efficiency with all four iPS factors [4]: do not increase the efficiency of reprogramming | GFP+ colonies with mES-like morphology in Klf4 replacement screen ([6]; 2000 cells per well, 25 days, scored after 30 days): hit compounds | induction of GFP+ colonies and dependence on VPA ([6]; larger scale validation): both with and without VPA

CCCN1CCCC[C@H]1C(=O)Nc1c(C)cccc1C [Ropivacaine]
colonies becoming Oct4::GFP+ after added 5-aza-cytidine ([3]; VPA, then 5-aza-cytidine for 48 hours): majority of these colonies became Oct4::GFP+ | formation of GFP+ colonies, dependence on VPA and 5-aza-cytidine ([3]; larger scale): only when used in conjunction with VPA and 5-aza-cytidine | colonies with mES-like morphologies but not GFP+ ([3]; screen with VPA): more than 10 | effect on reprogramming efficiency with all four iPS factors [4]: do not increase the efficiency of reprogramming

NC(=O)c1ccc(-c2nc(-c3ccc4c(c3)OCO4)c(-c3ccccn3)[nH]2)cc1 [SB431542, 4-(5-benzo[1,3]dioxol-5-yl-4-pyridin-2-yl-1H-imidazol-2-yl)-benzamide]
Nanog expression versus untreated control [7]: strongly increased | reprogramming efficiency in the absence of cMyc [8]: increased reprogramming efficiency | GFP+ colonies per 7500 cells plated ([5]; 25 μM): −10 | concentration required for complete Tgf-β inhibition [9]: greater than 1 μM | effect on reprogramming efficiency with all four iPS factors [4]: do not increase the efficiency of reprogramming

COC1=C[C@@H]2[C@@H]3Cc4ccc(OC)c(O)c4C2(CCN3C)CC1=O [Sinomenine]
GFP+ colonies in Oct4 replacement screen ([3]; 2000 MEFs, 25 days, VPA 2 mM): induced GFP+colonies | Oct4::GFP+ colonies in the absence of VPA ([3]; larger scale): failed to induce Oct4::GFP+colonies | Oct4::GFP+ colonies in the presence of VPA ([3]; larger scale): induced Oct4::GFP+colonies | effect on reprogramming efficiency with all four iPS factors ([4]; listed as Simomenine): not enhanced | effect on reprogramming efficiency with all four iPS factors ([4]; listed as Sinimonine): do not increase the efficiency of reprogramming

CCCC(CCC)C(=O)O [VPA, valproic acid]
GFP+ colonies with VPA alone ([5]; 1500 MEFs, VPA only, no Sox2): no GFP+colonies were observed | increase in the number of GFP+ colonies over the untreated control [4]: greater than 10 fold | GFP+ colonies per 7500 MEFs in medium with VPA ([4]; four transgenes + VPA): 100-200 and ~125
